Measured values published in PubChem BioAssay AID330 (DTP/NCI, 2004).
Where “and” joins values, the source holds several entries; their conditions need not be identical. Equal values may be shown once. Toxic doses and inconclusive results are not listed.

Tested on: P388 leukemia ip, CD2F1 mice, survival T/C
Experiment: NCI In Vivo Anticancer Drug Screen. Data for tumor model P388 Leukemia (intraperitoneal) in CD2F1 (CDF1) mice
Details: endpoint: median survival time, higher = longer survival
In short: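 Mice carrying the transplanted tumor received test compound or vehicle. Survival was recorded in each group, and the value is the treated-group measurement divided by that of the vehicle-treated control group.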

[1] = dose: 25.0 mg/kg/injection, schedule: Q01DX009 (ip), vehicle: saline
[2] = dose: 50.0 mg/kg/injection, schedule: Q01DX009 (ip), vehicle: saline
[3] = dose: 100.0 mg/kg/injection, schedule: Q01DX009 (ip), vehicle: saline
[4] = dose: 50.0 mg/kg/injection, schedule: Q01DX005 (ip), vehicle: saline with Tween-80
[5] = dose: 100.0 mg/kg/injection, schedule: Q01DX005 (ip), vehicle: saline with Tween-80
[6] = dose: 100.0 mg/kg/injection, schedule: Q01DX009 (ip), vehicle: saline with Tween-80
[7] = dose: 200.0 mg/kg/injection, schedule: Q01DX009 (ip), vehicle: saline with Tween-80
[8] = dose: 400.0 mg/kg/injection, schedule: Q01DX009 (ip), vehicle: saline with Tween-80
[9] = dose: 50.0 mg/kg/injection, schedule: Q01DX005 (ip), vehicle: Klucel (hydroxypropylcellulose) (HPC)

`Cc1c(O)ccc2c1OCC(c1ccc(Cl)cc1)C2` (centres undefined) was tested, and the T/C (dose: 60.0 mg/kg/injection, schedule: Q01DX005 (ip), vehicle: saline with Tween-80) was 104 % of control, the T/C (dose: 120.0 mg/kg/injection, schedule: Q01DX005 (ip), vehicle: saline with Tween-80) was 91 % of control and the T/C (dose: 240.0 mg/kg/injection, schedule: Q01DX005 (ip), vehicle: saline with Tween-80) was 92 % of control.

For `ClCC(CCl)(CCl)CCl`, the T/C (dose: 50.0 mg/kg/injection, schedule: Q04DX003 (ip), vehicle: saline with Tween-80) was 105 % of control and the T/C (dose: 100.0 mg/kg/injection, schedule: Q04DX003 (ip), vehicle: saline with Tween-80) was 98 % of control.

`C=C1SC(=Nc2c(C)cc(C)cc2C)N(C(=O)c2sc3ccccc3c2Cl)C12CCCCC2` was tested, and the T/C (dose: 50.0 mg/kg/injection, schedule: Q01DX009 (ip), vehicle: suspension in saline) was 96 % of control, the T/C (dose: 100.0 mg/kg/injection, schedule: Q01DX009 (ip), vehicle: suspension in saline) was 103 % of control and the T/C (dose: 200.0 mg/kg/injection, schedule: Q01DX009 (ip), vehicle: suspension in saline) was 91 % of control.

In the case of `CN(C)c1ccc(/C=N/N=C(/C#N)[S][Sn]([S]/C(C#N)=N/N=C/c2ccc(N(C)C)cc2)([c]2ccccc2)[c]2ccccc2)cc1`, the T/C (dose: 7.5 mg/kg/injection, schedule: Q01DX005 (ip), vehicle: saline with Tween-80) is reported as 112 % of control and the T/C (dose: 15.0 mg/kg/injection, schedule: Q01DX005 (ip), vehicle: saline with Tween-80) is reported as 123 % of control.

`COc1cc(C2=N/C(=C\c3ccccc3O)C(=O)O2)cc(OC)c1OC` was tested, and the T/C [1] was 94 % of control, the T/C [2] was 94 % of control and the T/C [3] was 91 % of control.

For `Cc1ccccc1N=C1SCC(=O)N1c1ccccc1C`, the T/C [4] was 96 % of control, the T/C [5] was 99 % of control and the T/C (dose: 200.0 mg/kg/injection, schedule: Q01DX005 (ip), vehicle: saline with Tween-80) was 91 % of control.

With `CCOC(=O)c1c(O)cc(C)[nH]c1=O` the T/C (dose: 50.0 mg/kg/injection, schedule: Q01DX009 (ip), vehicle: saline with Tween-80) was 103 % of control and 96 % of control, the T/C [6] was 100 % of control and 94 % of control and 98 % of control and the T/C [7] was 103 % of control and 106 % of control and 93 % of control. For the same molecule, the T/C [8] was 104 % of control and 106 % of control and 122 % of control.

`CCNC(=O)N(CC(=O)NC)c1ncc([N+](=O)[O-])s1` was tested, and the T/C (dose: 100.0 mg/kg/injection, schedule: Q04DX002 (ip), vehicle: Klucel (hydroxypropylcellulose) (HPC)) was 103 % of control, the T/C (dose: 200.0 mg/kg/injection, schedule: Q04DX002 (ip), vehicle: Klucel (hydroxypropylcellulose) (HPC)) was 101 % of control and the T/C (dose: 400.0 mg/kg/injection, schedule: Q04DX002 (ip), vehicle: Klucel (hydroxypropylcellulose) (HPC)) was 108 % of control.

For `CC(C)(C)c1ccc(CN2CCN(C(c3ccccc3)c3ccc(Cl)cc3)CC2)cc1` (centres undefined), the T/C (dose: 2.0 mg/kg/injection, schedule: Q01DX009 (ip), vehicle: saline with Tween-80) was 89 % of control, the T/C (dose: 4.0 mg/kg/injection, schedule: Q01DX009 (ip), vehicle: saline with Tween-80) was 95 % of control and the T/C (dose: 8.0 mg/kg/injection, schedule: Q01DX009 (ip), vehicle: saline with Tween-80) was 89 % of control. The T/C (dose: 16.0 mg/kg/injection, schedule: Q01DX009 (ip), vehicle: saline with Tween-80) was 94 % of control, the T/C (dose: 32.0 mg/kg/injection, schedule: Q01DX009 (ip), vehicle: saline with Tween-80) was 94 % of control and the T/C (dose: 64.0 mg/kg/injection, schedule: Q01DX009 (ip), vehicle: saline with Tween-80) was 94 % of control.

`CC(=O)C1=C(C)NC(C)=C(C(C)=O)C1c1ccccc1` was tested, and the T/C [6] was 100 % of control, the T/C [7] was 100 % of control and the T/C [8] was 90 % of control.

For `C=CCCCCCCCCCCCCCC1=NCC[N+]1(CCO)CC(O)COc1cc(Cl)c(Cl)c(Cl)c1` (centres undefined), the T/C (dose: 12.5 mg/kg/injection, schedule: Q01DX009 (ip), vehicle: saline) was 102 % of control, the T/C [1] was 106 % of control and the T/C [2] was 105 % of control and 108 % of control. For the same molecule, the T/C [3] was 90 % of control.

For `O=C1CCSC(=S)N1c1ccc(N=Nc2ccccc2)cc1`, the T/C [2] was 105 % of control, the T/C [3] was 110 % of control and the T/C (dose: 200.0 mg/kg/injection, schedule: Q01DX009 (ip), vehicle: saline) was 110 % of control.

In the case of `N#CN=[N+]([O-])c1ccc(Br)cc1`, the T/C (dose: 6.25 mg/kg/injection, schedule: Q04DX003 (ip), vehicle: Klucel (hydroxypropylcellulose) (HPC)) is reported as 108 % of control, the T/C (dose: 12.5 mg/kg/injection, schedule: Q04DX003 (ip), vehicle: Klucel (hydroxypropylcellulose) (HPC)) is reported as 108 % of control and the T/C (dose: 25.0 mg/kg/injection, schedule: Q04DX003 (ip), vehicle: Klucel (hydroxypropylcellulose) (HPC)) is reported as 90 % of control.

In the case of `Cc1cccc(N=C(C2=C(O)c3ccccc3C2=O)c2ccccc2)c1`, the T/C (dose: 25.0 mg/kg/injection, schedule: Q04DX002 (ip), vehicle: saline with Tween-80) is reported as 100 % of control, the T/C (dose: 50.0 mg/kg/injection, schedule: Q04DX002 (ip), vehicle: saline with Tween-80) is reported as 97 % of control and the T/C (dose: 100.0 mg/kg/injection, schedule: Q04DX002 (ip), vehicle: saline with Tween-80) is reported as 98 % of control. For the same molecule, the T/C (dose: 200.0 mg/kg/injection, schedule: Q04DX002 (ip), vehicle: saline with Tween-80) was 92 % of control and the T/C (dose: 400.0 mg/kg/injection, schedule: Q04DX002 (ip), vehicle: saline with Tween-80) was 97 % of control.

For `CCCCCCCCCCCC1=C(O)C(=O)C(Br)=C(O)C1=O`, the T/C [4] was 92 % of control and the T/C [5] was 92 % of control.

With `O=C(Nc1ccc(N(CCCl)CCCl)cc1)Oc1ccc(C(=O)O)cc1` the T/C (dose: 6.25 mg/kg/injection, schedule: Q01DX009 (ip), vehicle: saline with Tween-80) was 179 % of control and 193 % of control, the T/C (dose: 12.5 mg/kg/injection, schedule: Q01DX009 (ip), vehicle: saline with Tween-80) was 185 % of control and 189 % of control and the T/C (dose: 25.0 mg/kg/injection, schedule: Q01DX009 (ip), vehicle: saline with Tween-80) was 106 % of control.

In the case of `COC(=O)C1=C(C(=O)OC)P(I)(c2ccccc2)(c2ccccc2)N(C)C1(c1ccccc1)c1ccccc1`, the T/C [9] is reported as 100 % of control, the T/C (dose: 100.0 mg/kg/injection, schedule: Q01DX005 (ip), vehicle: Klucel (hydroxypropylcellulose) (HPC)) is reported as 100 % of control and the T/C (dose: 200.0 mg/kg/injection, schedule: Q01DX005 (ip), vehicle: Klucel (hydroxypropylcellulose) (HPC)) is reported as 90 % of control.

With `CCCCCCCC/C=C\CCCCCCCCSC1=CC(=O)C(OC)=C(OC)C1=O` the T/C (dose: 3.13 mg/kg/injection, schedule: Q01DX009 (ip), vehicle: Klucel (hydroxypropylcellulose) (HPC)) was 98 % of control, the T/C (dose: 6.25 mg/kg/injection, schedule: Q01DX009 (ip), vehicle: Klucel (hydroxypropylcellulose) (HPC)) was 96 % of control and the T/C (dose: 12.5 mg/kg/injection, schedule: Q01DX009 (ip), vehicle: Klucel (hydroxypropylcellulose) (HPC)) was 100 % of control. For the same molecule, the T/C (dose: 25.0 mg/kg/injection, schedule: Q01DX009 (ip), vehicle: Klucel (hydroxypropylcellulose) (HPC)) was 103 % of control.

In the case of `CCO/C=C1\SC(=S)N(c2cccc(OC)c2)C1=O`, the T/C [6] is reported as 118 % of control, the T/C (dose: 117.0 mg/kg/injection, schedule: Q04DX003 (ip), vehicle: saline with Tween-80) is reported as 113 % of control and the T/C (dose: 178.0 mg/kg/injection, schedule: Q04DX003 (ip), vehicle: saline with Tween-80) is reported as 118 % of control. The T/C [7] was 118 % of control and the T/C (dose: 266.0 mg/kg/injection, schedule: Q04DX003 (ip), vehicle: saline with Tween-80) was 109 % of control.

In the case of `CCOC(=O)C/C(C)=N\N(C)C(N)=O`, the T/C [2] is reported as 91 % of control and the T/C [3] is reported as 94 % of control.

`N#CCCOCN(COCCC#N)c1nc(N(COCCC#N)COCCC#N)nc(N(COCCC#N)COCCC#N)n1` was tested, and the T/C (dose: 7.5 mg/kg/injection, schedule: Q01DX005 (ip), vehicle: DMSO) was 97 % of control, the T/C (dose: 15.0 mg/kg/injection, schedule: Q01DX005 (ip), vehicle: DMSO) was 94 % of control and the T/C (dose: 30.0 mg/kg/injection, schedule: Q01DX005 (ip), vehicle: DMSO) was 94 % of control.

With `C=CCNc1ncnc2sc(SC)nc12` the T/C (dose: 100.0 mg/kg/injection, schedule: Q04DX002 (ip), vehicle: distilled water + alcohol) was 100 % of control, the T/C (dose: 200.0 mg/kg/injection, schedule: Q04DX002 (ip), vehicle: distilled water + alcohol) was 104 % of control and the T/C (dose: 400.0 mg/kg/injection, schedule: Q04DX002 (ip), vehicle: distilled water + alcohol) was 99 % of control.

`NC(=O)CC(NC(=O)OCC1c2ccccc2-c2ccccc21)C(=O)O` (centres undefined) was tested, and the T/C (dose: 12.5 mg/kg/injection, schedule: Q01DX005 (ip), vehicle: Klucel (hydroxypropylcellulose) (HPC)) was 92 % of control, the T/C (dose: 25.0 mg/kg/injection, schedule: Q01DX005 (ip), vehicle: Klucel (hydroxypropylcellulose) (HPC)) was 100 % of control and the T/C [9] was 100 % of control and 105 % of control.

With `Cc1c(-c2ccccc2)nn(CC(=O)O)c(=O)c1C#N` the T/C (dose: 37.5 mg/kg/injection, schedule: Q04DX002 (ip), vehicle: alkali diluted with water) was 106 % of control, the T/C (dose: 75.0 mg/kg/injection, schedule: Q04DX002 (ip), vehicle: alkali diluted with water) was 104 % of control and the T/C (dose: 150.0 mg/kg/injection, schedule: Q04DX002 (ip), vehicle: alkali diluted with water) was 106 % of control. The T/C (dose: 300.0 mg/kg/injection, schedule: Q04DX002 (ip), vehicle: alkali diluted with water) was 103 % of control.
